Assay results from ChEMBL document CHEMBL4152208, “Synthesis and structure-activity relationships of quinolinone and quinoline-based P2X7 receptor antagonists and their anti-sphere formation activities in glioblastoma cells” (Eur J Med Chem, 2018).
The source made the active and inactive calls. The calls are words filed in the database; no cut-off is given here.

Assays:
[1] = Metabolic stability in rat liver microsomes assessed as parent compound remaining at 1 uM up to 30 mins in presence of NADPH by LC-MS/MS analysis; assay type: ADME, microsome; settings: read-out: Stability
[2] = Kinetic solubility of the compound in PAMPA buffer at 50 uM by nepheolometry method; assay type: physicochemical
[3] = Kinetic solubility of the compound in PAMPA buffer at 12.5 uM by nepheolometry method; assay type: physicochemical
[4] = target: T1, P2X purinoceptor 7 (Homo sapiens) (UniProt Q99572); test: Antagonist activity at human P2X7 receptor expressed in HEK293 cells assessed as inhibition of BzATP-induced EtBr uptake at 10 uM after 2 hrs by fluorescence assay relative to control; assay type: cell-based
T1 sequence (whole entry): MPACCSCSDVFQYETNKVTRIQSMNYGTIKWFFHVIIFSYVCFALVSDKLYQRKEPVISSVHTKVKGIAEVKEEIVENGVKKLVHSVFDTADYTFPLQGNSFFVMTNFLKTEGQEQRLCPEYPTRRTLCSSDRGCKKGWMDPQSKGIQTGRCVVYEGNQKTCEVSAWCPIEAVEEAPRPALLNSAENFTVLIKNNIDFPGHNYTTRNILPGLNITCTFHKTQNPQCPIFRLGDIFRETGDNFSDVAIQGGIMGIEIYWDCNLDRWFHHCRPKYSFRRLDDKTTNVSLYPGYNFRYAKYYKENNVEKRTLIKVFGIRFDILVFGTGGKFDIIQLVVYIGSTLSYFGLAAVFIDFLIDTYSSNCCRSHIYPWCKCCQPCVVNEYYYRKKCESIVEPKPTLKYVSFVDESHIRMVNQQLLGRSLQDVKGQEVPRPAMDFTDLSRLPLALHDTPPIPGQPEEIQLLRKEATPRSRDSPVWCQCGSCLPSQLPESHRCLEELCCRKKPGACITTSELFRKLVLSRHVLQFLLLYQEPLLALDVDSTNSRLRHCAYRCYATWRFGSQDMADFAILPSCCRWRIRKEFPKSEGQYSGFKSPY

[5] = Metabolic stability in human liver microsomes assessed as parent compound remaining at 1 uM up to 30 mins in presence of NADPH by LC-MS/MS analysis; assay type: ADME, microsome; settings: read-out: Stability
[6] = Effective permeability of the compound at 50 uM after 4 hrs by BBB-PAMPA method; assay type: ADME; settings: read-out: Peff
P2X purinoceptor 7 [7] = target: T2, P2X purinoceptor 7 (Homo sapiens, UniProt Q99572); test: Antagonist activity at P2X7 in LPS/IFN gamma differentiated human THP-1 cells assessed as inhibition of BzATP-induced IL-1beta release preincubated for 30 mins followed by BzATP stimulation for 30 mins by ELISA; assay type: cell-based
T2 sequence (Q99572 whole entry): T1 sequence (whole entry)

[8] = Metabolic stability in mouse liver microsomes assessed as parent compound remaining at 1 uM up to 30 mins in presence of NADPH by LC-MS/MS analysis; assay type: ADME, microsome; settings: read-out: Stability
Homo sapiens [9] = species on record: Homo sapiens; test: Antiproliferative activity against human TS15-88 cells at 50 uM after 24 hrs by MTS assay; assay type: functional, cell-based
[10] = Cytotoxicity against HEK293 cells expressing human P2X7 receptor assessed as cell survival at 10 uM by MTT assay relative to control; assay type: cell-based; settings: read-out: Survival
P2X purinoceptor 7 [11] = target: T2, P2X purinoceptor 7; test: Antagonist activity at human P2X7 receptor expressed in HEK293 cells assessed as inhibition of BzATP-induced EtBr uptake after 2 hrs by fluorescence assay relative to control; assay type: cell-based
[12] = Kinetic solubility of the compound in PAMPA buffer at 25 uM by nepheolometry method; assay type: physicochemical
[13] = target: T1, P2X purinoceptor 7 (Homo sapiens); test: Antagonist activity at human P2X7 receptor expressed in HEK293 cells assessed as inhibition of BzATP-induced EtBr uptake at 1 uM after 2 hrs by fluorescence assay relative to control; assay type: cell-based
Homo sapiens [14] = species on record: Homo sapiens; test: Inhibition of neurosphere formation in human TS15-88 cells assessed as decrease in sphere size at 50 uM after 5 days by microscopic analysis relative to control; assay type: functional
P2X purinoceptor 3 = target: T3, P2X purinoceptor 3 (Rattus norvegicus, UniProt P49654); test: Antagonist activity at P2X3 receptor in rat DRG neurons at -70 mV holding potential by whole cell patch clamp method
T3 sequence (P49654 whole entry): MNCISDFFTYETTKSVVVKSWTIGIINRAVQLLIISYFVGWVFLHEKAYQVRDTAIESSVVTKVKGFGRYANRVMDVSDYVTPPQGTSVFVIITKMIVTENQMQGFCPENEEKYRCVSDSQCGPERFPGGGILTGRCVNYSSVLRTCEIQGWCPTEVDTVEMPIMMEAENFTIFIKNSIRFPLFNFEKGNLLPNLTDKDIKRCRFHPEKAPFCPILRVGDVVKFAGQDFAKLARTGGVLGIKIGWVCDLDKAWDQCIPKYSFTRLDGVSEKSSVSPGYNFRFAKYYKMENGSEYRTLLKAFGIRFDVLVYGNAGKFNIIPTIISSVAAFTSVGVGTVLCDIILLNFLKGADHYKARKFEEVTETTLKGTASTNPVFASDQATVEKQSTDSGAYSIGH

P2X purinoceptor 1 [15] = target: T4, P2X purinoceptor 1 (Rattus norvegicus, UniProt P47824); test: Antagonist activity at P2X1 receptor in rat vas deferens assessed as inhibition of alphabeta me-ATP-induced response
T4 sequence (P47824 whole entry): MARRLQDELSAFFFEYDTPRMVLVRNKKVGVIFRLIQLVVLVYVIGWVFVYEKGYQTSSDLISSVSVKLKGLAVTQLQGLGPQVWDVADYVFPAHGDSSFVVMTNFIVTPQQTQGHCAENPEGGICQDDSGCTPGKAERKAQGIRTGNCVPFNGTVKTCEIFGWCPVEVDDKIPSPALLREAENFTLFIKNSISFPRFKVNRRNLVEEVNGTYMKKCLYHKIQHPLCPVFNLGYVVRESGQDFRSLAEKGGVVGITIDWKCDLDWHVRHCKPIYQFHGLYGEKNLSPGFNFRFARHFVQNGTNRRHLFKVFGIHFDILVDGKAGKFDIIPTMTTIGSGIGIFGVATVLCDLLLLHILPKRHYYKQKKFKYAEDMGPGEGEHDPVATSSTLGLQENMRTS

P2X purinoceptor 1 [16] = target: P2X purinoceptor 1 (Rattus norvegicus, UniProt P47824); test: Antagonist activity at wild type His6 tagged rat P2X1 receptor expressed in Xenopus laevis oocytes assessed as inhibition of alphabeta-me ATP-induced calcium flux at -60 mV holding potential by two electrode voltage clamp method; assay type: cell-based

O=C(CC12CC3CC(CC(C3)C1)C2)Nc1cccc2nc(-c3ccc(C(=O)O)cc3)ccc12
remaining at 0.5 h, 1 µM [1]: 10.9%
Kinetic_solubility [2]: Soluble
Kinetic_solubility [3]: Soluble
inhibition [4]: 93%
remaining at 0.5 h, 1 µM [5]: 40.5%
Papp at 4 h, 50 µM [6]: 8.44 to 8.46 ×10⁻⁶ cm/s
IC50 (P2X purinoceptor 7 [7]): 25 nM
remaining at 0.5 h, 1 µM [8]: 8.1%
Activity (Homo sapiens [9]): inactive
viability at 10 µM [10]: 94%
IC50 (P2X purinoceptor 7 [11]): 8 nM
Kinetic_solubility [12]: Soluble
inhibition [13]: 87%
inhibition (Homo sapiens [14]): inactive

O=C(Nc1cc(C(=O)Nc2ccc(S(=O)(=O)O)cc2)cc(C(=O)Nc2ccc(S(=O)(=O)O)cc2)c1)Nc1cc(C(=O)Nc2ccc(S(=O)(=O)O)cc2)cc(C(=O)Nc2ccc(S(=O)(=O)O)cc2)c1
IC50 (P2X purinoceptor 3): 500 nM

Nc1c(S(=O)(=O)O)cc(Nc2ccc(S(=O)(=O)O)c(Nc3nc(Cl)nc(Cl)n3)c2)c2c1C(=O)c1ccccc1C2=O
IC50 (P2X purinoceptor 1 [15]): 4.7 µM
IC50 (P2X purinoceptor 1 [16]): 570 nM
